± gives the standard deviation of the averaged measurements.
compound: O=C(NOCC1CC1)c1ccc(F)c(F)c1Nc1ccc(I)cc1Cl; assay: surviving fraction relative to DMSO-only wells; higher = less growth inhibition; conditions: 0.5 nM; exposure time: 5 days
Summary of the method: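 At 250–500 cells per well in 384-well plates, log-phase tumour cell lines were seeded and, 24 hours on, exposed continuously for five days to inhibitors at 0.5, 1, 5, 10, 50, 100, 500 and 1000 nM. Viability readout was CellTiter-Glo luminescence, reported as surviving fraction normalised to the median of DMSO-only wells.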

| Test System | surviving fraction |
| --- | --- |
| HCC70 BREAST | 0.939 ± 0.029 |
| HCC78 LUNG | 0.787 ± 0.12 |
| HCC202 BREAST | 1.38 ± 0.41 |
| HCC1806 BREAST | 1.04 ± 0.026 |
| HCC1954 BREAST | 0.986 ± 0.081 |
| HCT15 LARGE INTESTINE | 0.526 ± 0.042 |
| HELA CERVIX | 0.961 ± 0.057 |
| HMLE3 BREAST | 0.845 ± 0.061 |
| HMT3552 BREAST | 1.11 |
| HOS BONE | 0.996 ± 0.015 |
| HOSMNG BONE | 1 ± 0.092 |
| HS57T BREAST | 0.909 ± 0.02 |
| HS578T BREAST | 0.899 ± 0.029 |
| HSSYII SYNOVIAL | 0.526 ± 0.017 |
| HT1080 SOFT TISSUE | 1.009 ± 0.0071 |
| HU09 BONE | 0.968 ± 0.024 |
| JIMT1 BREAST | 0.957 ± 0.056 |
| JURKAT HAEMATOPOIETIC AND LYMPHOID TISSUE | 1.03 ± 0.012 |
| KPD BONE | 1.17 ± 0.41 |
| LM7 BONE | 0.983 ± 0.049 |
| MCF7 BREAST | 0.843 ± 0.041 |

| Test System | surviving fraction |
| --- | --- |
| MDAMB134 BREAST | 0.871 ± 0.27 |
| MDAMB157 BREAST | 0.877 ± 0.043 |
| MDAMB231 BREAST | 0.963 ± 0.011 |
| MDAMB361 BREAST | 1.06 ± 0.12 |
| MDAMB436 BREAST | 0.904 ± 0.065 |
| MDAMB453 BREAST | 0.958 ± 0.033 |
| MDAMB468 BREAST | 0.938 ± 0.079 |
| MFM223 BREAST | 1.09 ± 0.046 |
| MG63 BONE | 0.9313 ± 0.0065 |
| MHM BONE | 0.947 ± 0.024 |
| NCIH441 LUNG | 0.939 ± 0.093 |
| NOS1 BONE | 1.15 ± 0.08 |
| NY BONE | 0.923 ± 0.029 |
| OS25HAL BONE | 0.951 ± 0.024 |
| OSHN BONE | 0.969 ± 0.026 |
| PCI30 HEADNECK | 0.831 ± 0.027 |
| RDES SOFT TISSUE | 1.33 ± 0.025 |
| S68 BREAST | 0.917 ± 0.13 |
| SAOS2 BONE | 1.08 ± 0.042 |
| SCC36 HEADNECK | 1.09 ± 0.037 |

same assay, conditions: 1 nM; exposure time: 5 days

| Test System | surviving fraction |
| --- | --- |
| HCC70 BREAST | 0.963 ± 0.03 |
| HCC78 LUNG | 0.836 ± 0.085 |
| HCC202 BREAST | 1.49 ± 0.64 |
| HCC1806 BREAST | 1.01 ± 0.098 |
| HCC1954 BREAST | 1.13 ± 0.023 |
| HCT15 LARGE INTESTINE | 0.912 ± 0.023 |
| HELA CERVIX | 1.01 ± 0.09 |
| HMLE3 BREAST | 0.91 ± 0.028 |
| HMT3552 BREAST | 1.12 |
| HOS BONE | 1.01 ± 0.025 |
| HOSMNG BONE | 0.992 ± 0.059 |
| HS57T BREAST | 0.945 ± 0.022 |
| HS578T BREAST | 0.913 ± 0.041 |
| HSSYII SYNOVIAL | 0.847 ± 0.035 |
| HT1080 SOFT TISSUE | 1.016 ± 0.01 |
| HU09 BONE | 1 ± 0.15 |
| JIMT1 BREAST | 0.967 ± 0.039 |
| JURKAT HAEMATOPOIETIC AND LYMPHOID TISSUE | 1.032 ± 0.0095 |
| KPD BONE | 0.967 ± 0.047 |
| LM7 BONE | 1.01 ± 0.041 |
| MCF7 BREAST | 0.87 ± 0.035 |

| Test System | surviving fraction |
| --- | --- |
| MDAMB134 BREAST | 1.03 ± 0.16 |
| MDAMB157 BREAST | 0.86 ± 0.12 |
| MDAMB231 BREAST | 0.994 ± 0.035 |
| MDAMB361 BREAST | 0.887 ± 0.067 |
| MDAMB436 BREAST | 0.905 ± 0.024 |
| MDAMB453 BREAST | 1.02 ± 0.062 |
| MDAMB468 BREAST | 0.983 ± 0.083 |
| MFM223 BREAST | 1.06 ± 0.088 |
| MG63 BONE | 0.969 ± 0.018 |
| MHM BONE | 0.906 ± 0.095 |
| NCIH441 LUNG | 0.968 ± 0.084 |
| NOS1 BONE | 1.15 ± 0.075 |
| NY BONE | 0.9257 ± 0.0055 |
| OS25HAL BONE | 0.964 ± 0.02 |
| OSHN BONE | 0.983 ± 0.029 |
| PCI30 HEADNECK | 0.849 ± 0.074 |
| RDES SOFT TISSUE | 1.27 ± 0.071 |
| S68 BREAST | 0.918 ± 0.21 |
| SAOS2 BONE | 1.06 ± 0.032 |
| SCC36 HEADNECK | 1.15 ± 0.03 |

same assay, conditions: 5 nM; exposure time: 5 days

| Test System | surviving fraction |
| --- | --- |
| HCC70 BREAST | 1.02 ± 0.049 |
| HCC78 LUNG | 0.841 ± 0.11 |
| HCC202 BREAST | 1.47 ± 0.2 |
| HCC1806 BREAST | 1.09 ± 0.16 |
| HCC1954 BREAST | 1.12 ± 0.027 |
| HCT15 LARGE INTESTINE | 0.849 ± 0.05 |
| HELA CERVIX | 0.97 ± 0.07 |
| HMLE3 BREAST | 0.922 ± 0.053 |
| HMT3552 BREAST | 1.01 |
| HOS BONE | 0.997 ± 0.014 |
| HOSMNG BONE | 0.999 ± 0.082 |
| HS57T BREAST | 0.933 ± 0.056 |
| HS578T BREAST | 0.917 ± 0.076 |
| HSSYII SYNOVIAL | 0.872 ± 0.041 |
| HT1080 SOFT TISSUE | 1.01 ± 0.028 |
| HU09 BONE | 1.06 ± 0.073 |
| JIMT1 BREAST | 0.997 ± 0.032 |
| JURKAT HAEMATOPOIETIC AND LYMPHOID TISSUE | 1.04 ± 0.016 |
| KPD BONE | 1.032 ± 0.007 |
| LM7 BONE | 1.1 ± 0.12 |
| MCF7 BREAST | 0.848 ± 0.02 |

| Test System | surviving fraction |
| --- | --- |
| MDAMB134 BREAST | 0.933 ± 0.067 |
| MDAMB157 BREAST | 0.929 ± 0.1 |
| MDAMB231 BREAST | 1 ± 0.024 |
| MDAMB361 BREAST | 0.986 ± 0.076 |
| MDAMB436 BREAST | 0.932 ± 0.026 |
| MDAMB453 BREAST | 1.02 ± 0.072 |
| MDAMB468 BREAST | 1.02 ± 0.029 |
| MFM223 BREAST | 1.05 ± 0.059 |
| MG63 BONE | 0.976 ± 0.016 |
| MHM BONE | 0.992 ± 0.013 |
| NCIH441 LUNG | 0.945 ± 0.026 |
| NOS1 BONE | 1.16 ± 0.057 |
| NY BONE | 0.953 ± 0.02 |
| OS25HAL BONE | 0.931 ± 0.033 |
| OSHN BONE | 0.979 ± 0.019 |
| PCI30 HEADNECK | 1.02 ± 0.078 |
| RDES SOFT TISSUE | 1.32 ± 0.15 |
| S68 BREAST | 0.901 ± 0.063 |
| SAOS2 BONE | 1.04 ± 0.073 |
| SCC36 HEADNECK | 1.09 ± 0.035 |

same assay, conditions: 10 nM; exposure time: 5 days

| Test System | surviving fraction |
| --- | --- |
| HCC70 BREAST | 0.956 ± 0.058 |
| HCC78 LUNG | 0.832 ± 0.25 |
| HCC202 BREAST | 1.28 ± 0.26 |
| HCC1806 BREAST | 1.12 ± 0.079 |
| HCC1954 BREAST | 1.05 ± 0.066 |
| HCT15 LARGE INTESTINE | 0.936 ± 0.066 |
| HELA CERVIX | 0.964 ± 0.08 |
| HMLE3 BREAST | 0.862 ± 0.017 |
| HMT3552 BREAST | 1.08 |
| HOS BONE | 1.01 ± 0.033 |
| HOSMNG BONE | 1.01 ± 0.027 |
| HS57T BREAST | 0.965 ± 0.033 |
| HS578T BREAST | 1.09 ± 0.08 |
| HSSYII SYNOVIAL | 0.928 ± 0.074 |
| HT1080 SOFT TISSUE | 1.03 ± 0.029 |
| HU09 BONE | 1.06 ± 0.11 |
| JIMT1 BREAST | 0.997 ± 0.02 |
| JURKAT HAEMATOPOIETIC AND LYMPHOID TISSUE | 1.02 ± 0.044 |
| KPD BONE | 0.977 ± 0.037 |
| LM7 BONE | 1 ± 0.024 |
| MCF7 BREAST | 0.849 ± 0.028 |

| Test System | surviving fraction |
| --- | --- |
| MDAMB134 BREAST | 0.869 ± 0.075 |
| MDAMB157 BREAST | 0.928 ± 0.069 |
| MDAMB231 BREAST | 1.02 ± 0.032 |
| MDAMB361 BREAST | 0.973 ± 0.029 |
| MDAMB436 BREAST | 0.883 ± 0.029 |
| MDAMB453 BREAST | 0.992 ± 0.046 |
| MDAMB468 BREAST | 1 ± 0.11 |
| MFM223 BREAST | 1.07 ± 0.089 |
| MG63 BONE | 0.997 ± 0.017 |
| MHM BONE | 1.01 ± 0.015 |
| NCIH441 LUNG | 0.984 ± 0.041 |
| NOS1 BONE | 1.16 ± 0.062 |
| NY BONE | 0.975 ± 0.023 |
| OS25HAL BONE | 0.971 ± 0.025 |
| OSHN BONE | 0.988 ± 0.028 |
| PCI30 HEADNECK | 1.01 ± 0.029 |
| RDES SOFT TISSUE | 1.33 ± 0.093 |
| S68 BREAST | 1.04 ± 0.27 |
| SAOS2 BONE | 1.02 ± 0.018 |
| SCC36 HEADNECK | 1.18 ± 0.12 |
